The results in this text go back to US10899737B2, “Piperazine carbamates and methods of making and using same” (Lundbeck La Jolla Research Center, Inc., priority 2016, dated 2021).

The structures appear in SMILES notation. Where only a bound is given, the exact number is not on record here.

Test [1] deals with T1, ABHD6 (Mus musculus, UniProt Q8R2Y0).
T1 construct: Proteomes (mouse brain membrane fraction or cell lysates); from tissue; host or cells: mouse brain membrane fraction or cell lysates
T1 sequence (Q8R2Y0 1-336): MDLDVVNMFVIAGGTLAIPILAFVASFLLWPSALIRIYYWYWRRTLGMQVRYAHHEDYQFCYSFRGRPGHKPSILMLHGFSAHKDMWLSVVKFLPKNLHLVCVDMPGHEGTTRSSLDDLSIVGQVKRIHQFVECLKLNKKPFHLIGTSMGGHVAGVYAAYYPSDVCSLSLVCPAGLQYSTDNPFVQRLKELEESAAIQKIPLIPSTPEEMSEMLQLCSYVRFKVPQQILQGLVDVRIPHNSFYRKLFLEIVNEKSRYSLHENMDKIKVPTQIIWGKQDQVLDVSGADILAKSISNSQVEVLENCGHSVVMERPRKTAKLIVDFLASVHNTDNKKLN
The test is described as follows: In vitro competitive activity-based protein profiling (mouse), ABHD6. The format is biochemical. The following applies: 1 μM inhibitor, mouse brain membrane fraction or cell lysates; read-out: ABHD6 % inh. 1 μM (mouse). The protocol:
(§1) In Vitro Competitive Activity-Based Protein Profiling (Mouse).
(§2) Proteomes (mouse brain membrane fraction or cell lysates) (50 μL, 1.0 mg/mL total protein concentration) were preincubated with varying concentrations of inhibitors at 37° C. After 30 min, FP-Rh (1.0 μL, 50 μM in DMSO) was added and the mixture was incubated for another 30 min at 37° C. Reactions were quenched with SDS loading buffer (50 μL-4×) and run on SDS-PAGE. Following gel imaging, serine hydrolase activity was determined by measuring fluorescent intensity of gel bands corresponding to MAGL and ABHD6 using ImageJ 1.49 k software. Data from this assay is shown in Table 1 (% inhibition at 1 μM).

For test [2], the target named is T2, MAGL (Mus musculus, UniProt O35678).
T2 construct: Proteomes (mouse brain membrane fraction or cell lysates); from tissue; host or cells: mouse brain membrane fraction or cell lysates
T2 sequence (O35678 1-303): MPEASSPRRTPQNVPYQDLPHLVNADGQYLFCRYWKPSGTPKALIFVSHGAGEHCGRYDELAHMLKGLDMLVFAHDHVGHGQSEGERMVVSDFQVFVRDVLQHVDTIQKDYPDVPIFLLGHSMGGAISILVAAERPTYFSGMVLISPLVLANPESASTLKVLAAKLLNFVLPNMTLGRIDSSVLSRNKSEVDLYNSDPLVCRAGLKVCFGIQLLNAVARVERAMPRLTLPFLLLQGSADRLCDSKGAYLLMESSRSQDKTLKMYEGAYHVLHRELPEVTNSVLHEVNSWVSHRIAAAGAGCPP
Briefly: In vitro competitive activity-based protein profiling (mouse), MAGL. Format: biochemical. The following applies: for inhibition at 1 µM: 1 μM inhibitor, mouse brain membrane fraction or cell lysates, read-out: MAGL % inh. 1 μM (mouse); for IC50: mouse proteome. The protocol:
as §1, §2

The target in test [3] is T2, MAGL. The test is described as follows: Mouse brain proteomes from inhibitor treated mice, MAGL inhibition. The format is in vivo. As to conditions: 5 mg/kg oral gavage, C57Bl/6J mouse brain, 4 h following administration; read-out: MAGL % inh. 5 mg/kg (mouse). The protocol:
Preparation of Mouse Brain Proteomes from Inhibitor Treated Mice.
Inhibitors were administered to wild-type C57Bl/6J by oral gavage in a vehicle of polyethylene glycol. Each animal was sacrificed 4 h following administration and brain proteomes were prepared and analyzed according to previously established methods (See Niphakis, M. J., et al. (2011) ACS Chem. Neurosci. and Long, J. Z., et al. Nat. Chem. Biol. 5:37-44).

Test [4] concerns the target T3, MAGL (Homo sapiens, UniProt Q99685).
T3 construct: Proteomes (human prefrontal cortex or cell membrane fractions); from tissue
T3 sequence (Q99685 1-303): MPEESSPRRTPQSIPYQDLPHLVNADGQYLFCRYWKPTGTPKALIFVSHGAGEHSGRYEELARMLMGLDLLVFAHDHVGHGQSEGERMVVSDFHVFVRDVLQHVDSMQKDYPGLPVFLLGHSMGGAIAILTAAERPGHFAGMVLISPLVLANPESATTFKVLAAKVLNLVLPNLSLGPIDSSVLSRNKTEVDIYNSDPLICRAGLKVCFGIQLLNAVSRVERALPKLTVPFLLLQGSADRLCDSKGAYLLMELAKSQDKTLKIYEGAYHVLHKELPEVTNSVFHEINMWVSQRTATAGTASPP
The test is described as follows: In vitro competitive activity-based protein profiling (human), MAGL. The format is biochemical. The following applies: for inhibition at 1 µM: 1 μM inhibitor, human proteome, 30 min preincubation at 37° C, read-out: MAGL % inh. 1 μM (human); for IC50: human PC3. The protocol:
(§3) In Vitro Competitive Activity-Based Protein Profiling (Human).
(§4) Proteomes (human prefrontal cortex or cell membrane fractions) (50 μL, 1.0-2.0 mg/mL total protein concentration) were preincubated with varying concentrations of inhibitors at 37° C. After 30 min, FP-Rh or JW912 (1.0 μL, 50 μM in DMSO) was added and the mixture was incubated for another 30 min at room temperature. Reactions were quenched with SDS loading buffer (15 μL-4×) and run on SDS-PAGE. Following gel imaging, serine hydrolase activity was determined by measuring fluorescent intensity of gel bands corresponding to MAGL and ABHD6 using ImageJ 1.49 k software.

Test [5] addresses T4, ABHD6 (Homo sapiens, UniProt Q9BV23).
T4 construct: Proteomes (human prefrontal cortex or cell membrane fractions); endogenous in cells; human prefrontal cortex
T4 sequence (Q9BV23 1-337): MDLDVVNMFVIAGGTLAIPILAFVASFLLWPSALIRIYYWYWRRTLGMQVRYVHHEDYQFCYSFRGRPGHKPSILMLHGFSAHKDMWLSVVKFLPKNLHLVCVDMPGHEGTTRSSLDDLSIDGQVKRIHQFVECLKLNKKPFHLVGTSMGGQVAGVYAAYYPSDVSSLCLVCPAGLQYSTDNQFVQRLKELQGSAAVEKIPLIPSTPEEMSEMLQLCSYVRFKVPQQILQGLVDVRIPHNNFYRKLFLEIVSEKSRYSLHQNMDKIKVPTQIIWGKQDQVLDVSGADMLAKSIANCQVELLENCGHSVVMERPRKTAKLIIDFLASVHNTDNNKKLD
Briefly: In vitro competitive activity-based protein profiling (human), ABHD6. The format is biochemical. As to conditions: human PC3. How it is done:
as §3, §4

For orientation: IC50 means the midpoint of a concentration-inhibition curve. As to `O=C(O)CN1CCN(c2cc(C(F)(F)F)ccc2CN2CCN(C(=O)OC(C(F)(F)F)C(F)(F)F)CC2)CC1` [Example 42], the inhibition at 1 µM at ABHD6 [1] is 0 to 25%; at MAGL [2], no less than 75%; at MAGL [4], no less than 75%. Further, the IC50 on MAGL [2] is no more than 0.1 µM. Besides, the inhibition at 5 mg/kg on MAGL [3] was in the range of 25 to 50%.

As to `O=C(O)C1CCN(c2cc(F)ccc2CN2CCN(C(=O)OC(C(F)(F)F)C(F)(F)F)CC2)CC1` [Example 73, 1-(5-fluoro-2-((4-(((1,1,1,3,3,3-hexafluoropropan-2-yl)oxy)carbonyl)piperazin-1-yl)methyl)phenyl)piperidine-4-carboxylic acid], the IC50 on ABHD6 [5] was 1 to 10 µM; at MAGL [4], no more than 0.1 µM. The inhibition at 1 µM is 50 to 75% on ABHD6 [1], no less than 75% at MAGL [2] and no less than 75% on MAGL [4].

Consider `O=C(O)CNC1CCN(c2cc(C(F)(F)F)ccc2CN2CCN(C(=O)OC(C(F)(F)F)C(F)(F)F)CC2)CC1` [Example 49, (1-(2-((4-(((1,1,1,3,3,3-hexafluoropropan-2-yl)oxy)carbonyl)piperazin-1-yl)methyl)-5-(trifluoromethyl)phenyl)piperidin-4-yl)glycine], for which the concentration for half-maximal inhibition (IC50) on ABHD6 [5] is 1 to 10 µM; at MAGL [4], no more than 0.1 µM. Also, the inhibition at 1 µM at ABHD6 [1] is 0 to 25%; at MAGL [2], no less than 75%; on MAGL [4], no less than 75%.

For the compound `O=C(O)CN1CCN(C(=O)c2cc(C(F)(F)F)ccc2CN2CCN(C(=O)OC(C(F)(F)F)C(F)(F)F)CC2)CC1` [Example 28, 2-(4-(2-((4-(((1,1,1,3,3,3-Hexafluoropropan-2-yl)oxy)carbonyl)piperazin-1-yl)methyl)-5-(trifluoromethyl)benzoyl)piperazin-1-yl)acetic Acid], the IC50 was in the range of 1 to 10 µM at ABHD6 [5] and 0.1 to 1 µM on MAGL [4]. The inhibition at 1 µM was 25 to 50% on ABHD6 [1], no less than 75% on MAGL [2] and no less than 75% on MAGL [4].

For the compound `O=C(OC(C(F)(F)F)C(F)(F)F)N1CCN(Cc2cc(Cl)cc(C3(C(=O)O)CCCC3)c2)CC1` [Example 32, 1-(3-Chloro-5-((4-(((1,1,1,3,3,3-hexafluoropropan-2-yl)oxy)carbonyl)piperazin-1-yl)methyl)phenyl)cyclopentane-1-carboxylic Acid], the IC50 is 0.1 to 1 µM on ABHD6 [5] and no more than 0.1 µM at MAGL [4]. The inhibition at 1 µM on ABHD6 [1], on MAGL [2] and at MAGL [4] was no less than 75% in each case.

Turning to `O=C(O)[C@H]1CCCN(c2cc(C(F)(F)F)ccc2CN2CCN(C(=O)OC(C(F)(F)F)C(F)(F)F)CC2)C1` [Example 80, (S)-1-(2-((4-(((1,1,1,3,3,3-hexafluoropropan-2-yl)oxy)carbonyl)piperazin-1-yl)methyl)-5-(trifluoromethyl)phenyl)piperidine-3-carboxylic acid], the IC50 on ABHD6 [5] was 0.1 to 1 µM; on MAGL [4] it was no more than 0.1 µM. Further, the inhibition at 1 µM was 25 to 50% on ABHD6 [1], no less than 75% on MAGL [2] and no less than 75% on MAGL [4].

In the case of `O=C(O)C1CCN(Cc2cc(C(F)(F)F)ccc2CN2CCN(C(=O)OC(C(F)(F)F)C(F)(F)F)CC2)CC1` [Example 41, 1-(2-((4-(((1,1,1,3,3,3-hexafluoropropan-2-yl)oxy)carbonyl)piperazin-1-yl)methyl)-5-(trifluoromethyl)benzyl)piperidine-4-carboxylic acid], the IC50 at ABHD6 [5] lay within 1 to 10 µM; at MAGL [4] it was 0.1 to 1 µM. The inhibition at 1 µM is 0 to 25% at ABHD6 [1], no less than 75% at MAGL [2] and no less than 75% at MAGL [4].

As for `O=C(O)CN1CC2(CCN(c3cc(Cl)ccc3CN3CCN(C(=O)OC(C(F)(F)F)C(F)(F)F)CC3)CC2)C1` [Example 47, 2-(7-(5-chloro-2-((4-(((1,1,1,3,3,3-hexafluoropropan-2-yl)oxy)carbonyl)piperazin-1-yl)methyl)phenyl)-2,7-diazaspiro[3.5]nonan-2-yl)acetic acid], the IC50 at ABHD6 [5] was 1 to 10 µM; at MAGL [2], no more than 0.1 µM; on MAGL [4] it was no more than 0.1 µM. Also, the values for the inhibition at 1 µM at ABHD6 [1], on MAGL [2] and on MAGL [4] were 0 to 25%, no less than 75% and no less than 75%, respectively.

Regarding `O=C(O)C1CCN(c2cc(C(F)F)ccc2CN2CCN(C(=O)OC(C(F)(F)F)C(F)(F)F)CC2)CC1` [Example 72, 1-(5-(difluoromethyl)-2-((4-(((1,1,1,3,3,3-hexafluoropropan-2-yl)oxy)carbonyl)piperazin-1-yl)methyl)phenyl)piperidine-4-carboxylic acid], the IC50 on ABHD6 [5] was 1 to 10 µM; at MAGL [4], no more than 0.1 µM. Moreover, the inhibition at 1 µM on ABHD6 [1], on MAGL [2] and on MAGL [4] was no less than 75% each time.

Consider `CC1(C(=O)O)CCN(c2cc(CN3CCN(C(=O)OC(C(F)(F)F)C(F)(F)F)CC3)cc(C(F)(F)F)c2)CC1` [Example 29, 1-(3-((4-(((1,1,1,3,3,3-Hexafluoropropan-2-yl)oxy)carbonyl)piperazin-1-yl)methyl)-5-(trifluoromethyl)phenyl)-4-methylpiperidine-4-carboxylic Acid], for which the IC50 on ABHD6 [5] and at MAGL [4] was no more than 0.1 µM in each case. Moreover, the inhibition at 1 µM on ABHD6 [1], at MAGL [2] and at MAGL [4] was no less than 75% throughout.

As for `O=C(OC(C(F)(F)F)C(F)(F)F)N1CCN(Cc2cc(C(F)(F)F)cc(C3(C(=O)O)CCCC3)c2)CC1` [Example 1, 1-(3-((4-(((1,1,1,3,3,3-Hexafluoropropan-2-yl)oxy)carbonyl)piperazin-1-yl)methyl)-5-(trifluoromethyl)phenyl)cyclopentane-1-carboxylic Acid], the IC50 was 0.1 to 1 µM at ABHD6 [5] and no more than 0.1 µM on MAGL [4]. Further, the inhibition at 1 µM at ABHD6 [1], on MAGL [2] and at MAGL [4] was no less than 75% throughout.

For `O=C(O)C1COCCN1c1cc(CN2CCN(C(=O)OC(C(F)(F)F)C(F)(F)F)CC2)cc(C(F)(F)F)c1` (stereo not shown) [Example 68, 4-(3-((4-(((1,1,1,3,3,3-hexafluoropropan-2-yl)oxy)carbonyl)piperazin-1-yl)methyl)-5-(trifluoromethyl)phenyl)morpholine-3-carboxylic acid], the IC50 at ABHD6 [5] is 0.1 to 1 µM; on MAGL [4], no more than 0.1 µM. Besides, the inhibition at 1 µM at ABHD6 [1], on MAGL [2] and on MAGL [4] was no less than 75% in each case.
